Biological target: T1, human TLR8 (Homo sapiens, UniProt Q9NR97)
T1 sequence (Q9NR97 27-1041): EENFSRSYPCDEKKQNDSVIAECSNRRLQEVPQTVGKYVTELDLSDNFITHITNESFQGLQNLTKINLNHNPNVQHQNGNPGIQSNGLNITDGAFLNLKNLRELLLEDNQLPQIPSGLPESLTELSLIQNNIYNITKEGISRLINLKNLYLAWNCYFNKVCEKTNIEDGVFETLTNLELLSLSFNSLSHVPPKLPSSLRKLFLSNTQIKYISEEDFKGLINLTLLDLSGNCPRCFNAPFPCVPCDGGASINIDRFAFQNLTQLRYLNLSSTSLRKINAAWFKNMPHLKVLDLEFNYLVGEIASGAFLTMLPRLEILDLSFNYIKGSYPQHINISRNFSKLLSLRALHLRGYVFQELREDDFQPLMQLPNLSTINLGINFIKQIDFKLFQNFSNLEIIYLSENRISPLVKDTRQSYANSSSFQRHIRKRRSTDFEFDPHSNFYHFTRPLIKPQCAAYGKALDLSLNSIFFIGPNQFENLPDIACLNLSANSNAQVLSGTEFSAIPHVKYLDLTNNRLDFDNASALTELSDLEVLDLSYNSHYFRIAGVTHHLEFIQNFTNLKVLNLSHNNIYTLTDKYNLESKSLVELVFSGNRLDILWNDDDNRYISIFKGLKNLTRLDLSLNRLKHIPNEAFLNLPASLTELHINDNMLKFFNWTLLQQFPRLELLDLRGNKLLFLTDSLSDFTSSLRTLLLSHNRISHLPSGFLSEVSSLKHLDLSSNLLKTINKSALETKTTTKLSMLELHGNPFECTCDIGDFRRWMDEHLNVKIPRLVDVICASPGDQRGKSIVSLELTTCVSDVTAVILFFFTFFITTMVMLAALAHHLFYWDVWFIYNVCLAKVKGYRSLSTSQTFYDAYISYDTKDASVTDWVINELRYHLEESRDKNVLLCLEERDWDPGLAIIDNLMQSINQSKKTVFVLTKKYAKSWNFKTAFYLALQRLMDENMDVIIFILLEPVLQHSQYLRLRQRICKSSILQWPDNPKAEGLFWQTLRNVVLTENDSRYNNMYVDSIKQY
Experiment: HEK293-Blue-hTLR-8 cells assay (SEAP reporter, R848 stimulation)
Assay type: cell-based
Conditions: HEK293-Blue-hTLR8 cells, R848 ligand, 20 hrs incubation
Protocol: The following tests were carried out in order to determine the activity of the compounds of formula (I) in HEK293-Blue-hTLR-7/8/9 cells assay.
HEK293-Blue-hTLR-8 Cells Assay:
A stable HEK293-Blue-hTLR-8 cell line was purchased from InvivoGen (Cat. #: hkb-htlr8, San Diego, Calif., USA). These cells were originally designed for studying the stimulation of human TLR8 by monitoring the activation of NF-κB. A SEAP (secreted embryonic alkaline phosphatase) reporter gene was placed under the control of the IFN-β minimal promoter fused to five NF-κB and AP-1-binding sites. The SEAP was induced by activating NF-κB and AP-1 via stimulating HEK-Blue hTLR8 cells with TLR8 ligands. Therefore the reporter expression was declined by TLR8 antagonist under the stimulation of a ligand, such as R848, for incubation of 20 hrs. The cell culture supernatant SEAP reporter activity was determined using QUANTI-Blue™ kit (Cat. #: rep-qb1, Invivogen, San Diego, Ca, USA) at a wavelength of 640 nm, a detection medium that turns purple or blue in the presence of alkaline phosphatase.
HEK293-Blue-hTLR8 cells were incubated at a density of 250,000˜450,000 cells/mL in a volume of 170 μL in a 96-well plate in Dulbecco's Modified Eagle's medium (DMEM) containing 4.5 g/L glucose, 50 U/mL penicillin, […], […], 2 mM L-glutamine, 10% (v/v) heat-inactivated fetal bovine serum with addition of 20 μL test compound in a serial dilution in the presence of final DMSO at 1% and 10 μL of 60 uM R848 in above DMEM, perform incubation under 37° C. in a CO2 incubator for 20 hrs. Then 20 μL of the supernatant from each well was incubated with 180 μL Quanti-blue substrate solution at 37° C. for 2 hrs and the absorbance was read at 620-655 nm using a spectrophotometer. The signalling pathway that TLR8 activation leads to downstream NF-κB activation has been widely accepted, and therefore similar reporter assay was modified for evaluating TLR8 antagonist.

| SMILES | IC50 [nM] |
| --- | --- |
| CC[C@@H]1CN(c2ccc(C#N)c3ncccc23)C[C@H]1CN1CCC2(CCNCC2)CC1 (relative stereo) [Example 15, 5-[Trans-3-(3,9-diazaspiro[5.5]undecan-3-ylmethyl)-4-ethyl-pyrrolidin-1-yl]quinoline-8-carbonitrile] | 190 |
| FC(F)(F)c1ccc(N2C[C@@H](CN3CCC4(CCNC4)C3)[C@H](C(F)(F)F)C2)c2nccnc12 (relative stereo) [Example 19, 5-[Trans-3-(2,7-diazaspiro[4.4]nonan-2-ylmethyl)-4-(trifluoromethyl)pyrrolidin-1-yl]-8-(trifluoromethyl)quinoxaline] | 253 |
| C[C@@H]1CN(c2ccc(C(F)(F)F)c3nccnc23)C[C@H]1CN1CCC2(CCNCC2)CC1 (relative stereo) [Example 21, 3-[[Trans-4-methyl-1-[8-(trifluoromethyl)quinoxalin-5-yl]pyrrolidin-3-yl]methyl]-3,9-diazaspiro[5.5]undecane] | 351 |
| N#Cc1ccc(N2C[C@@H](CN3CCC4(CCNCC4)CC3)[C@H](C(F)F)C2)c2cccnc12 (relative stereo) [Example 27, 5-[Trans-3-(3,9-diazaspiro[5.5]undecan-3-ylmethyl)-4-(difluoromethyl)pyrrolidin-1-yl]quinoline-8-carbonitrile] | 454 |
| N#Cc1ccc(N2C[C@@H](CN3CCC4(CCNCC4)CC3)[C@H](C3CC3)C2)c2cccnc12 (relative stereo) [Example 28, 5-[Trans-3-cyclopropyl-4-(3,9-diazaspiro[5.5]undecan-3-ylmethyl)pyrrolidin-1-yl]quinoline-8-carbonitrile] | 948 |
| CC[C@@H]1CN(c2ccc(C#N)c3ncccc23)C[C@H]1CN1CCC2(CCNC2)C1 (relative stereo) [Example 29, 5-[Trans-3-(2,7-diazaspiro[4.4]nonan-2-ylmethyl)-4-ethyl-pyrrolidin-1-yl]quinoline-8-carbonitrile] | 197 |
| C[C@@H]1CN(c2ccc(C(F)(F)F)c3nccnc23)C[C@H]1CN1CCC(N2CCCCC2)CC1 (relative stereo) [Example 33, 5-[Trans-3-methyl-4-[[4-(1-piperidyl)-1-piperidyl]methyl]pyrrolidin-1-yl]-8-(trifluoromethyl)quinoxaline] | 245 |
| N#Cc1ccc(N2C[C@@H](CN3CCC4(CCNC4)C3)[C@H](C(F)F)C2)c2cccnc12 (relative stereo) [Example 34, 5-[Trans-3-(2,7-diazaspiro[4.4]nonan-2-ylmethyl)-4-(difluoromethyl)pyrrolidin-1-yl]quinoline-8-carbonitrile] | 373 |
| CC(C)[C@@H]1CN(c2ccc(C#N)c3ncccc23)C[C@H]1CN1CCC2(CCNCC2)CC1 (relative stereo) [Example 36, 5-[Trans-3-(3,9-diazaspiro[5.5]undecan-3-ylmethyl)-4-isopropyl-pyrrolidin-1-yl]quinoline-8-carbonitrile] | 5170 |
| CC(C)[C@@H]1CN(c2ccc(C#N)c3ncccc23)C[C@H]1CN1CCC2(CCNC2)C1 (relative stereo) [Example 44, 5-[Trans-3-(2,7-diazaspiro[4.4]nonan-2-ylmethyl)-4-isopropyl-pyrrolidin-1-yl]quinoline-8-carbonitrile] | 533 |
| N#Cc1ccc(N2CC(CN3CCC(N)CC3)C3(CC3)C2)c2nccnc12 (single isomer, unassigned) [Example 68A, 8-[7-[(4-Amino-1-piperidyl)methyl]-5-azaspiro[2.4]heptan-5-yl]quinoxaline-5-carbonitrile] | 60 |
| N#Cc1ccc(N2C[C@H](CN3CCC4(CCNCC4)CC3)[C@@H](C(F)(F)F)C2)c2nccnc12 [Example 1, 8-[(3S,4R)-3-(3,9-diazaspiro[5.5]undecan-3-ylmethyl)-4-(trifluoromethyl)pyrrolidin-1-yl]quinoxaline-5-carbonitrile] | 20 |
| N#Cc1ccc(N2C[C@H](CN3CCC4(CCNCC4)CC3)[C@@H](C(F)(F)F)C2)c2cccnc12 [Example 2, 5-[(3S,4R)-3-(3,9-diazaspiro[5.5]undecan-3-ylmethyl)-4-(trifluoromethyl)pyrrolidin-1-yl]quinoline-8-carbonitrile] | 57 |
| N#Cc1ccc(N2C[C@H](CN3CCC4(CCNC4)C3)[C@@H](C(F)(F)F)C2)c2nccnc12 (stereo partly drawn) [Example 5, 8-[(3S,4R)-3-(2,7-diazaspiro[4.4]nonan-2-ylmethyl)-4-(trifluoromethyl)pyrrolidin-1-yl]quinoxaline-5-carbonitrile] | 35 |
| N#Cc1ccc(N2C[C@H](CN3CCC4(CCCNC4)C3)[C@@H](C(F)(F)F)C2)c2cccnc12 (stereo partly drawn) [Example 6, 5-[(3S,7R)-3-(2,9-diazaspiro[4.5]decan-2-ylmethyl)-4-(trifluoromethyl)pyrrolidin-1-yl]quinoline-8-carbonitrile] | 39 |
| CC1(N)CCN(CC2CN(c3ccc(C#N)c4nccnc34)CC23CC3)CC1 (centres unmarked) [Example 7, 8-[7-[(4-Amino-4-methyl-1-piperidyl)methyl]-5-azaspiro[2.4]heptan-5-yl]quinoxaline-5-carbonitrile] | 43 |
| N#Cc1ccc(N2C[C@H](CN3CC4(CCCNC4)C3)[C@@H](C(F)(F)F)C2)c2cccnc12 [Example 8, 5-[(3S,7R)-3-(2,8-diazaspiro[3.5]nonan-2-ylmethyl)-4-(trifluoromethyl)pyrrolidin-1-yl]quinoline-8-carbonitrile] | 55 |
| N#Cc1ccc(N2C[C@H](CN3CCC4(CCNC4)C3)[C@@H](C(F)(F)F)C2)c2cccnc12 (stereo partly drawn) [Example 9, 5-[(3S,4R)-3-(2,7-diazaspiro[4.4]nonan-2-ylmethyl)-4-(trifluoromethyl)pyrrolidin-1-yl]quinoline-8-carbonitrile] | 47 |
| N#Cc1ccc(N2C[C@H](CN3CCC(N4CCCCC4)CC3)[C@@H](C(F)(F)F)C2)c2cccnc12 [Example 10, 5-[(3S,4R)-3-[[4-(1-piperidyl)-1-piperidyl]methyl]-4-(trifluoromethyl)pyrrolidin-1-yl]quinoline-8-carbonitrile] | 52 |
| N#Cc1ccc(N2CC(CN3CCC(N4CCCCC4)CC3)C3(CC3)C2)c2nccnc12 (centres unmarked) [Example 11, 8-[7-[[4-(1-Piperidyl)-1-piperidyl]methyl]-5-azaspiro[2.4]heptan-5-yl]quinoxaline-5-carbonitrile] | 24 |
| CC1(N)CCN(C[C@H]2CN(c3ccc(C#N)c4nccnc34)C[C@@H]2C(F)(F)F)CC1 [Example 12, 8-[(3S,4R)-3-[(4-amino-4-methyl-1-piperidyl)methyl]-4-(trifluoromethyl)pyrrolidin-1-yl]quinoxaline-5-carbonitrile] | 31 |
| N#Cc1ccc(N2CC(CN3CCC4(CCCNC4)CC3)C3(CC3)C2)c2nccnc12 (centres unmarked) [Example 13, 8-[7-(2,9-Diazaspiro[5.5]undecan-9-ylmethyl)-5-azaspiro[2.4]heptan-5-yl]quinoxaline-5-carbonitrile] | 50 |
| N#Cc1ccc(N2C[C@H](CN3CCC4(CCNC4)CC3)[C@@H](C(F)(F)F)C2)c2nccnc12 [Example 14, 8-[(3S,4R)-3-(2,8-Diazaspiro[4.5]decan-8-ylmethyl)-4-(trifluoromethyl)pyrrolidin-1-yl]quinoxaline-5-carbonitrile] | 19 |

Source: patent US20210253575A1, “PYRROLIDINE AMINE COMPOUNDS FOR THE TREATMENT OF AUTOIMMUNE DISEASE” (Hoffmann-La Roche Inc., priority 2018, published 2021)
